Measured values taken from patent US20190375708A1 (VenatoRx Pharmaceuticals, Inc., priority 2018, published 2019).

Columns and labels:
[1] = In vitro cytotoxicity assay (MTT cell viability) in HepG2 cells; format: cell-based, human; conditions: human
Method in brief: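 HepG2 cells incubated 7 days at 37 °C, 5% CO2 with compounds from 30 μM to 1.0 nM (8 half-log dilutions). Viability read as MTT formazan absorbance at 492 nm, normalised to vehicle controls; CC50 from 4-parameter non-linear regression.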

[2] = test system: HBV replication in HepAD38 cells; assay: Anti-HBV replication assay in HepAD38 cells (QPCR of extracellular HBV DNA); format: cell-based, HBV (genotype D, serotype ayw); conditions: Hepatitis B virus, 168 h, 7 days incubation, extracellular HBV DNA by QPCR, read-out: Anti-HBV EC50
Method in brief: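 EC50 values reflect 50% reduction of extracellular HBV DNA, measured by QPCR after 7-day treatment of tetracycline-deprived HepAD38 cells with compound […].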

| SMILES | CC50 at 7 days [1] [nM] | EC50 [2] [nM] |
| --- | --- | --- |
| Cc1nc(C(C)(NC(=O)C(=O)c2c(C)c(C(=O)Nc3ccc(F)c(C)c3)c(C)n2C)C2CC2)no1 (stereo not shown) [Example 716, 5-(2-((1-cyclopropyl-1-(5-methyl-1,2,4-oxadiazol-3-yl)ethyl)amino)-2-oxoacetyl)-N-(4-fluoro-3-methylphenyl)-1,2,4-trimethyl-1H-pyrrole-3-carboxamide] | > 30000 | < 50 |
| Cc1cc(NC(=O)c2c(C)c(C(=O)C(=O)N[C@H]3c4ccccc4C[C@H]3O)n(C)c2C)ccc1F [Example 260, N-(4-fluoro-3-methylphenyl)-5-(2-(((1S,2R)-2-hydroxy-2,3-dihydro-1H-inden-1-yl)amino)-2-oxoacetyl)-1,2,4-trimethyl-1H-pyrrole-3-carboxamide] | 5000 to 30000 | < 50 |
| Cc1cc(NC(=O)c2cc(C(=O)C(=O)N3CCc4nc(N)sc4C3)n3c2CCCC3)ccc1F [Example 421, 3-(2-(2-amino-6,7-dihydrothiazolo[5,4-c]pyridin-5(4H)-yl)-2-oxoacetyl)-N-(4-fluoro-3-methylphenyl)-5,6,7,8-tetrahydroindolizine-1-carboxamide] | > 30000 | > 1000 |
| Cc1cc(NC(=O)c2c(C)c(C(=O)C(=O)NC(C)(C)C(=O)OC(C)(C)C)n(C)c2C)ccc1F [Example 22, tert-butyl 2-(2-(4-((4-fluoro-3-methylphenyl)carbamoyl)-1,3,5-trimethyl-1H-pyrrol-2-yl)-2-oxoacetamido)-2-methylpropanoate] | > 30000 | < 50 |
| CC[C@@H](CO)NC(=O)C(=O)c1c(C)c(C(=O)Nc2cnc(F)c(C)c2)c(C)n1C [Example 186, (S)-N-(6-fluoro-5-methylpyridin-3-yl)-5-(2-((1-hydroxybutan-2-yl)amino)-2-oxoacetyl)-1,2,4-trimethyl-1H-pyrrole-3-carboxamide] | > 30000 | 50 to 499 |
| Cc1c(C(=O)Nc2cccc(C(F)F)c2)c(C)n(C)c1C(=O)C(=O)N[C@]1(C)CC[C@@H](O)CC1 [Example 700, N-(3-(difluoromethyl)phenyl)-5-(2-(((1r,4r)-4-hydroxy-1-methylcyclohexyl)amino)-2-oxoacetyl)-1,2,4-rimethyl-1H-pyrrole-3-carboxamide] | > 30000 | < 50 |
| Cc1cc(NC(=O)c2c(C)c(C(=O)C(=O)NC3(CN4CCOCC4)CCCCC3)n(C)c2C)ccc1F [Example 596, N-(4-fluoro-3-methylphenyl)-1,2,4-trimethyl-5-(2-((1-(morpholinomethyl)cyclohexyl)amino)-2-oxoacetyl)-1H-pyrrole-3-carboxamide] | > 30000 | < 50 |
| Cc1c(C(=O)Nc2ccc(F)c(Cl)c2)c(C)n(C)c1C(=O)C(=O)Nc1ccccn1 [Example 309, N-(3-chloro-4-fluorophenyl)-1,2,4-trimethyl-5-(2-oxo-2-(pyridin-2-ylamino)acetyl)-1H-pyrrole-3-carboxamide] | > 30000 | 50 to 499 |
| Cc1cc(NC(=O)c2c(C)c(C(=O)C(=O)N[C@H]3C[C@@H](NS(C)(=O)=O)C3)n(C)c2C)ccc1F [Example 669, N-(4-fluoro-3-methylphenyl)-1,2,4-trimethyl-5-(2-(((1s,3s)-3-(methylsulfonamido)cyclobutyl)amino)-2-oxoacetyl)-1H-pyrrole-3-carboxamide] | > 30000 | < 50 |
| Cc1cc(NC(=O)c2cc(C(=O)C(=O)NC3(C(F)(F)F)CC3)n3c2CCCC3)ccc1F [Example 402, N-(4-fluoro-3-methylphenyl)-3-(2-oxo-2-((1-(trifluoromethyl)cyclopropyl)amino)acetyl)-5,6,7,8-tetrahydroindolizine-1-carboxamide] | > 30000 | 50 to 499 |
| CC(C)(O)CNC(=O)C(=O)c1c(Cl)c(C(=O)Nc2ccc(F)c(Cl)c2)c2n1CCC2 [Example 557, 6-chloro-N-(3-chloro-4-fluorophenyl)-5-(2-((2-hydroxy-2-methylpropyl)amino)-2-oxoacetyl)-2,3-dihydro-1H-pyrrolizine-7-carboxamide] | 5000 to 30000 | < 50 |
| Cc1c(C(=O)Nc2ccc(F)nc2)c(C)n(C)c1C(=O)C(=O)N[C@H]1C2CC3CC1C[C@](O)(C3)C2 [Example 92, N-(6-fluoropyridin-3-yl)-5-(2-(((1R,2s,3S,5s,7s)-5-hydroxyadamantan-2-yl)amino)-2-oxoacetyl)-1,2,4-trimethyl-1H-pyrrole-3-carboxamide] | > 30000 | 50 to 499 |
| CC(C)(CO)CNC(=O)C(=O)c1c(Cl)c(C(=O)Nc2ccnc(F)c2)c2n1CCCC2 [Example 526, 2-chloro-N-(2-fluoropyridin-4-yl)-3-(2-((3-hydroxy-2,2-dimethylpropyl)amino)-2-oxoacetyl)-5,6,7,8-tetrahydroindolizine-1-carboxamide] | > 30000 | > 1000 |
| Cc1cc(NC(=O)c2c(C)c(C(=O)C(=O)N[C@@H]3CCNC3=O)n(C)c2C)ccc1F [Example 672, (R)-N-(4-fluoro-3-methylphenyl)-1,2,4-trimethyl-5-(2-oxo-2-((2-oxopyrrolidin-3-yl)amino)acetyl)-1H-pyrole-3-carboxamide] | > 30000 | < 50 |
| Cc1c(C(=O)Nc2cccc(C(F)F)c2)c(C)n(C)c1C(=O)C(=O)N[C@]1(C)CC[C@H](O)CC1 [Example 701, N-(3-(difluoromethyl)phenyl)-5-(2-(((1s,4s)-4-hydroxy-1-methylcyclohexyl)amino)-2-oxoacetyl)-1,2,4-trimethyl-1H-pyrrole-3-carboxamide] | > 30000 | < 50 |
| Cc1cc(NC(=O)c2c(Cl)c(C(=O)C(=O)NC3(CO)CC(F)(F)C3)n3c2CCCC3)cnc1F [Example 507, 2-chloro-3-(2-((3,3-difluoro-1-(hydroxymethyl)cyclobutyl)amino)-2-oxoacetyl)-N-(6-fluoro-5-methylpyridin-3-yl)-5,6,7,8-tetrahydroindolizine-1-carboxamide] | > 30000 | 50 to 499 |
| Cc1csc(NC(=O)C(=O)c2c(C)c(C(=O)Nc3ccc(F)c(Cl)c3)c(C)n2C)n1 [Example 316, N-(3-chloro-4-fluorophenyl)-1,2,4-trimethyl-5-(2-((4-methylthiazol-2-yl)amino)-2-oxoacetyl)-1H-pyrrole-3-carboxamide] | > 30000 | < 50 |
| Cc1cc(NC(=O)c2c(C)c(C(=O)C(=O)NC3(C(=O)NC(C)(C)CO)CCOCC3)n(C)c2C)ccc1F [Example 681, N-(4-fluoro-3-methylphenyl)-5-(2-((4-((1-hydroxy-2-methylpropan-2-yl)carbamoyl)tetrahydro-2H-pyran-4-yl)amino)-2-oxoacetyl)-1,2,4-trimethyl-1H-pyrrole-3-carboxamide] | > 30000 | < 50 |
| CNC(=O)[C@H](NC(=O)C(=O)c1c(C)c(C(=O)Nc2ccc(F)c(C)c2)c(C)n1C)C(C)C [Example 106, (R)-N-(4-fluoro-3-methylphenyl)-1,2,4-trimethyl-5-(2-((3-methyl-1-(methylamino)-1-oxobutan-2-yl)amino)-2-oxoacetyl)-1H-pyrrole-3-carboxamide] | 500 to 4990 | < 50 |
| Cc1cc(NC(=O)c2c(C)c(C(=O)C(=O)NC3(C)CC[C@H](O)[C@H](O)C3)n(C)c2C)ccc1F (stereo partly drawn) [Example 703, 5-(2-(((3R,4S)-3,4-dihydroxy-1-methylcyclohexyl)amino)-2-oxoacetyl)-N-(4-fluoro-3-methylphenyl)-1,2,4-trimethyl-1H-pyrrole-3-carboxamide] | > 30000 | < 50 |
| Cc1cc(NC(=O)c2c(C)c(C(=O)C(=O)N[C@@H]3CC[C@@H](O)C3)n(C)c2C)ccc1F [Example 127, N-(4-fluoro-3-methylphenyl)-5-(2-(((1R,3R)-3-hydroxycyclopentyl)amino)-2-oxoacetyl)-1,2,4-trimethyl-1H-pyrrole-3-carboxamide] | > 30000 | < 50 |
| Cc1noc([C@@H](C)NC(=O)C(=O)c2c(Cl)c(C(=O)Nc3ccc(F)c(F)c3)c3n2CCCC3)n1 [Example 517, (R)-2-chloro-N-(3,4-difluorophenyl)-3-(2-((1-(3-methyl-1,2,4-oxadiazol-5-yl)ethyl)amino)-2-oxoacetyl)-5,6,7,8-tetrahydroindolizine-1-carboxamidde] | 5000 to 30000 | 50 to 499 |
| CC(=O)N1CCC[C@H](NC(=O)C(=O)c2c(C)c(C(=O)Nc3ccc(F)c(C)c3)c(C)n2C)C1 [Example 641, (S)-5-(2-((1-acetylpiperidin-3-yl)amino)-2-oxoacetyl)-N-(4-fluoro-3-methylphenyl)-1,2,4-trimethyl-1H-pyrrole-3-carboxamide] | > 30000 | < 50 |
| Cc1cc(NC(=O)c2c(C)c(C(=O)C(=O)NC(C)(C)C)n(C)c2Cl)ccc1F [Example 386, 5-(2-(tert-butylamino)-2-oxoacetyl)-2-chloro-N-(4-fluoro-3-methylphenyl)-1,4-dimethyl-1H-pyrrole-3-carboxamide] | 5000 to 30000 | > 1000 |
| Cc1cc(NC(=O)c2c(Cl)c(C(=O)C(=O)NCc3cnc(N)s3)n3c2CCC3)cnc1F [Example 734, 5-(2-(((2-aminothiazol-5-yl)methyl)amino)-2-oxoacetyl)-6-chloro-N-(6-fluoro-5-methylpyridin-3-yl)-2,3-dihydro-1H-pyrrolizine-7-carboxamide] | > 30000 | < 50 |
| Cc1c(C(=O)Nc2ccc(F)nc2)c(C)n(C)c1C(=O)C(=O)N[C@H]1CC[C@](O)(C(F)(F)F)CC1 [Example 239] | > 30000 | 500 to 1000 |
